The subject of one assay is E. coli. The assay is described as follows: Clinical Trial: Tamiflu and E. coli (case Pinga, Table 16). The format is in vivo, feline. The settings on record: for Clinical response: case Pinga, acute vomiting and hematuria, endotoxic condition. As for the experimental part:
In Table 16, E. coli, a neuraminidase dependent bacteria, was cultured from Pinga's urine following an acute onset of vomiting and hematuria. […] 24, 2005 when […] presented in an endotoxic condition.

Assay [1] has as its system Infectious Canine Tracheobronchitis (ICT) or Kennel Cough. The format is in vivo, dog. The settings on record: for Clinical course (Days to Recover): racing greyhounds Miami, oral antibiotic plus cough suppressant, no Tamiflu, 5 days.
Assay [2] deals with Feline Parvoviral Enteritis. The experiment in a line: Feline parvoviral enteritis cases: treatment and prevention with Tamiflu. The format is in vivo, cat. As for the experimental part: Table 6 represents 5 cases of Feline Parvoviral Enteritis with Tamiflu at 1 mg/lb AM/PM for 10 treatments.
Assay [3] concerns canine parvoviral enteritis. The experiment in a line: Canine parvoviral enteritis clinical cases: treatment and prevention with oral Tamiflu. It counts as in vivo, dog. The note with it: for Outcome of exposed dogs (Days to Recover): exposed - preventive, Tamiflu 1 mg/lb once a day (AM) for 5 days. As for the experimental part: Table 3 represents 28 Chihuahua dogs and puppies that experienced an outbreak of canine parvoviral enteritis within their kennel. The initial treatment lasted one week and was consistent with traditional therapy. (IV fluids, antibiotics and antiemetics). During the first week, 9 puppies died and a second veterinarian was consulted.
The second veterinarian removed all IV treatment and started oral Tamiflu and AmoxiDrops on 11 puppies. This treatment was administered by the kennel staff with the veterinarian consulting by phone.
The exposed dogs received 1 mg/lb of Tamiflu once a day for 5 days.
Table 4 represents of 25 cocker spaniel dogs and puppies that experienced an outbreak of canine parvoviral enteritis within their kennel. The initial treatment lasted one week and was consistent with traditional therapy consisting of IV fluids and antibiotics, antiemetics and steroids. During this period of time, 9 puppies died, and a second veterinarian was consulted.
The second veterinarian removed all IV treatment and oral Tamiflu and sulfadimethoxine/ormetoprim (antibiotic) were the only drugs administered to 11 of the puppies. The 12th puppy was taken to the veterinarian's clinic and received IV therapy. Those puppies remaining at the kennel were treated by the kennel staff.
Table 5 represents 48 individual cases of Canine Parvoviral Enteritis treated with 1 mg/lb Tamiflu AM/PM for 10 treatments. Cases posted VIN's Infectious Dz Board by 20 veterinarians practicing in 15 states.

For assay [4], the system named is Raccoon Parvoenteritis/Distemper. The assay is described as follows: Raccoon parvoenteritis/distemper treated with Tamiflu. The format is in vivo. The note with it: raccoons, Tamiflu 1 mg/lb every 12 hrs for 10 treatments, no IV drugs. As for the experimental part: Table 7 represents 5 raccoons treated with Tamiflu at 1 mg/lb given every 12 hrs for 10 treatments. Treatment administered by civilian rehabbers at their homes. Granules mixed with pancake syrup.
Raccoons represent the 5th species (cow, dog, cat, mice) in which a neuraminidase inhibitor has been successful in treating or preventing a disease associated with neuramimidase dependent bacteria. Before using Tamiflu, the hemorrhagic gastroenteritis (Parvo) in raccoon was 100% fatal. […] Treatment was administered by untrained lay personnel at the rehab centers.

Where “and” joins values, the source holds several entries; their conditions need not be identical. Equal entries are not always repeated. Entries after “also recorded” stand apart in the source; their conditions may differ.

On to `CCOC(=O)C1=C[C@@H](OC(CC)CC)[C@H](NC(C)=O)[C@@H](N)C1` [Tamiflu, oseltamivir], for which the Clinical response result in the assay on E. coli (E. coli cultured from urine) was “dramatic reversal”. For the same compound, the Observations entry in the assay with E. coli (cat Pinga, E. coli cultured from urine, at 2nd treatment, Nov. 24, 2004 5:35 PM, Tamiflu 12 mg PO (1 mg/lb), with Zeniquin) was “Pinga is more alert and has not vomited”; in the assay on E. coli (cat Pinga, at 4th treatment, Nov. 25, 2004 5:30 PM, Tamiflu 12 mg PO), “Urinated, was normal yellow color . . . has”; with E. coli (cat Pinga, at 5th treatment, Nov. 26, 2004 10:30 AM, Tamiflu 12 mg PO, with Zeniquin), “exam is normal”; with E. coli (cat Pinga, at 6th treatment, Nov. 26, 2004 5 PM, Tamiflu 12 mg PO) it was “Urinated normal urine . . . passed 3 small”; with E. coli (cat Pinga, at 7th treatment, Nov. 27, 2004 10:30 AM, Tamiflu 12 mg PO, with Zeniquin), “more alert . . . began to eat Wellness dry”; in the assay with E. coli (cat Pinga, at 9th treatment, Nov. 28, 2004 10:30 AM, Tamiflu 12 mg PO, with Zeniquin), “almost “normal” . . . maybe weak in rear”. Moreover, the Observations result in the assay on E. coli (cat Pinga, at 10th (last) treatment, 5:30 PM, Tamiflu 12 mg PO) is “Pinga appears to be normal . . . this is his”. For the same compound, the Temp was determined as 99.5 F with E. coli (cat Pinga, at 3rd treatment, Nov. 25, 2004); 98.9 F with E. coli (cat Pinga, at 4th treatment, Nov. 25, 2004); 98.8 F in the assay with E. coli (cat Pinga, at 5th treatment, Nov. 26, 2004); 100.6 F in the assay on E. coli (cat Pinga, at 6th treatment, Nov. 26, 2004); 98.8 F in the assay on E. coli (cat Pinga, at 7th treatment, Nov. 27, 2004); 100.1 F in the assay with E. coli (cat Pinga, at 9th treatment, Nov. 28, 2004). Also, the “Days to Recover” value in assay [1] (kennel cough, Tamiflu 1 mg/lb AM/PM, with or without oral antibiotic, no cough suppressant) was 3 to 5 days; in assay [2] (cats, Tamiflu 1 mg/lb AM/PM for 10 treatments, with IV drugs or SQ fluids), 4 days and 2 days and 3 days; in assay [3] (Chihuahua kennel puppies, Tamiflu 1 mg/lb AM/PM oral with AmoxiDrops, no IV drugs) it was 5 days and 3 days; in assay [3] (Sandcastle Kennels cocker puppies, Tamiflu 1 mg/lb AM/PM oral with sulfadimethoxine/ormetoprim), 3 days and 5 days and 4 days; in assay [4] it was 3 days. Further, in assay [1] (sick dogs 1 mg/lb AM/PM 5 days, others and new puppies 1 mg/lb once a day for 5 days), the “Illness in holding kennels under herd health program” value is “below 5%”. The “Outcome of exposed kitten (Days to Recover)” value in assay [2] (exposed kitten, Tamiflu 1 mg/lb once a day (AM) for 5 days) is recorded as “remained normal”. The Survival of puppies result in assay [3] (Chihuahua kennel, 11 puppies, oral Tamiflu and AmoxiDrops) is “All puppies survived”. In addition, the “Outcome of exposed dogs (Days to Recover)” value is “remained healthy” in assay [3] (Chihuahua kennel) and “did not develop canine parvoviral enteritis; also recorded: Healthy” in assay [3] (Sandcastle Kennels). Further, the “Outcome of exposed dog (Days to Recover)” value in assay [3] (Table 5, exposed puppy, weak parvo test, Tamiflu 1 mg/lb AM/PM) is given as “Normal”.

Take `CC1=C(C(=O)O)N2C(=O)[C@@H](NC(=O)[C@H](N)c3ccccc3)[C@H]2SC1` [Cephalexin]: in assay [1], the “Clinical course (Days to Recover)” value was “No Change”.

For `CN1CCN(c2c(F)cc3c(=O)c(C(=O)O)cn4c3c2OCN4C)CC1` [Zeniquin], the Clinical response entry in the assay on E. coli (E. coli cultured from urine) was “failed to respond”. The “Clinical course under antibiotic therapy (Medical History)” value in the assay on E. coli (cat Pinga, Zeniquin 12.5 mg/day PO from Nov. 22 to Nov. 24, 2004, before Tamiflu) was “had gotten progressively worse over the course of antibiotic therapy, and now appeared to be approaching”.

On to `C[C@H]1c2cccc(O)c2C(O)=C2C(=O)[C@]3(O)C(O)=C(C(N)=O)C(=O)[C@@H](N(C)C)[C@@H]3[C@@H](O)[C@@H]21` [Doxy], for which, in assay [1], the “Clinical course (Days to Recover)” value is recorded as “No Change”.
